US10711261B2 (priority 2015, dated 2020)
“Also recorded” adds a separate entry of the source.

Key:
[1] = in vivo; cited from earlier work
[2] = target: recombinant human WT SOD1 (Homo sapiens, UniProt P00441); type: binding
[3] = target: WT DJ-1 (Homo sapiens, UniProt Q99497); type: binding
[4] = target: T1, DJ-1 (Homo sapiens, UniProt Q99497); type: binding
[5] = target: T1, DJ-1; type: binding; remark: listed apart in the source

Chain of recombinant human WT SOD1 (P00441 2-154): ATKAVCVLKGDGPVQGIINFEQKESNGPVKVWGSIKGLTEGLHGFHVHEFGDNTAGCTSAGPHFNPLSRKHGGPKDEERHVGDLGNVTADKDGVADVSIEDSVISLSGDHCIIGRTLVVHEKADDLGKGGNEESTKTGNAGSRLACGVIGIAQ
T1 sequence (Q99497 whole entry): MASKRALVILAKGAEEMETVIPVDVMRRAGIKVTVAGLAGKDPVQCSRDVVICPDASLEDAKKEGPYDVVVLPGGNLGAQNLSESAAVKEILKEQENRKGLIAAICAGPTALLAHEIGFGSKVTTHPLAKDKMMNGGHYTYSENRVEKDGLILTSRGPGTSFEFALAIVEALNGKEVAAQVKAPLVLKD
Chain of WT DJ-1 (Q99497 whole entry): as above

SMILES | LD100 [1] | covalent dimerization of SOD1 (change in mass of covalently linked SOD1 dimers) [2] | extent of cross-linking of SOD1 monomers [2] | covalent dimerization of DJ-1 [3] | site of covalent linkage in DJ-1 dimer [4] | denaturation temperature of DJ-1 (thermal stability) [5]
CC(C)C[C@H](NC(=O)[C@H](Cc1ccccc1)NC(=O)c1cnccn1)B(O)O [bortezomib] | < 0.25 mg/kg | – | – | – | – | –
[O-][S+]1CCCCS1 (stereo not drawn) [NSC56224, 1-oxo-1,2-dithiane] | – | capable of covalently dimerizing SOD1 | able to cross-link the majority of SOD1 monomers in the sample | identified as a covalent dimerizer of DJ-1 | covalently linked DJ-1 dimers at Cys53; also recorded: two trypsin digest fragments of DJ-1 containing Cys53 (underlined) linked by NSC56224 | increase the measured denaturation temperature of DJ-1 relative to untreated DJ-1
OCC1(CO)CSSC1 [1,2-dithiolane-4,4-dimethanol] | – | capable of covalently dimerizing SOD1 | – | – | – | –
NC(=O)NN=C1CSSC1 [NSC72268] | – | – | – | identified as a specific DJ-1 covalent dimerizer; also recorded: specific covalent dimerizer of DJ-1 | – | increase the measured denaturation temperature of DJ-1 relative to untreated DJ-1
